SMILES strings stand for the structures. Values after ≈ are worked out from the molar mass of the structure shown. Values joined by “and” are separate entries in the source; they are usually repeats but may differ in a detail not shown here. Equal values may be shown once.

Data set [1] concerns ear auricle of a mouse. The data set is described as follows: Local lymph node proliferation assay using a mouse (ear auricle irritation). Format: in vivo. As to conditions: for Thickness of ear auricle: 50 μL/mouse per day on both ears, once a day for 3 days, day of measurement not given; for Extent of hyperplasia: ear auricle thickness on day 3 minus day 1, 0.1 mm or greater = irritating; for General symptoms: observation during administration period. The source says: (Local Lymph Node Proliferation Assay using a Mouse)
(1) Administration Solution
(A) An administration solution A prepared by suspending the BIT/Zn salt obtained in Example 1 in a mixed solvent, which was composed of N,N-dimethylacetamide, acetone and ethanol and which contained the respective component at a ratio of 4:3:3 (volume ratio) (hereafter, frequently referred to as “DAE”), so as to achieve a 5% by weight solution.
(B) An administration solution B prepared by dissolving BIT in DAE so as to achieve a 5% by weight solution.
(2) Application of an Administration Solution
12.5 μL of the administration solutions A and B were respectively applied inside and outside the ear auricle of a mouse using a micropipette. This process was carried out for both ears, once a day, and for 3 days. The applied dose was 50 μL/mouse for one day.
(3) Measurement of Body Weight
Regarding the mouse provided for the experiment, the body weight thereof was measured just before the application on day 0 of the experiment, on day 3 of the experiment, and just before the dissection thereof (on day 6).
(4) Measurement of Ear Auricle Thickness
Regarding the mouse provided for the experiment, the ear auricle thickness thereof was measured on day 1 and on day 3 of the experiment, using a digital thickness gage manufactured by Teclock Corporation.
The extent of hyperplasia was calculated by the formula: (ear auricle thickness on day 3 of the experiment)—(ear auricle thickness on day 1 of the experiment). When the extent of hyperplasia was 0.1 mm or greater, it was evaluated as “irritating”.
(5) Observation of Symptoms
During the administration period, the observations were made once just before the administration and once 3 hours after the administration. During other periods, the observations were made once a day. The presence and absence of erythema in the ear auricle was observed just before the administrations on day 1, day 2 and on day 3 of the experiment, and the observations made were evaluated in scores as 0 to 16 grades.
Method for Evaluating Mouse Eears
Grades 0-9: Evaluated as possibly not irritating to humans.
Grades 10-15: Evaluated as possibly slightly irritating to humans.
Grades greater than grade 15: Evaluated as possibly irritating to humans.

The nature of data set [2]: Thermal stability test. Format: physicochemical. On the procedure:
A test was carried out on the thermal stability of the BIT/Zn salt obtained in Example 1 and of BIT. As a result, BIT broke down at 300° C. or less, whereas the BIT/Zn salt remained stable even at 400° C.

Data set [3] has as its system Aspergillus niger NBRC6342. The data set is described as follows: Test for determining minimum concentration for inhibition of growth (agar plate dilution method), Aspergillus niger. The settings on record: for MIC value (mM/L) Aspergillus niger NBRC6342: MIC on a molar basis, based on the molecular weights; for MIC value: concentration of active ingredient, potato dextrose agar, strain not given in Table 2. The class given is cell-based. An excerpt: (§1) (Test for Determining Minimum Concentration for Inhibition of Growth)
(§2) For the test samples, 3 types of samples were used; i.e., the BIT/Zn salt obtained in Example 1 (in the form of a powder containing 79.7% of active ingredients), a BIT material/SC formulation (i.e., Bestcide-NS manufactured by Nippon Soda Co., Ltd. containing 33% of active ingredients), and ZnO (zinc oxide) of 99.0% or greater (manufactured by Wako Pure Chemical Industries, Ltd.). Evaluations were made by conducting an agar plate dilution method using a potato dextrose agar medium. Two fungal strains; i.e., Aspergillus niger NBRC6342 and Cladosporium cladosporioides NBRC6348, were used as microorganisms for the test, and the BIT/Zn salt, BIT and ZnO were used at a concentration of 50 to 1,000 mg/L. The results are shown in Table 2 and Table 3. It should be noted that in Table 3, the results on the analysis of minimum inhibitory concentration (MIC) based on the molecular weights (i.e., MIC values on a molar basis) are shown.

Data set [4] has as its system Cladosporium cladosporioides NBRC6348. The data set is described as follows: Test for determining minimum concentration for inhibition of growth (agar plate dilution method), Cladosporium cladosporioides. The class given is cell-based. As to conditions: MIC on a molar basis, based on the molecular weights.
Excerpt: as §1, §2

For data set [5], the system named is Escherichia coli NBRC 3972. Description: Antibacterial test using a coated film (JIS Z 2801), Escherichia coli. Format: cell-based. On the procedure:
(§3) Regarding the BIT/Zn salt obtained in Example 1, an antibacterial test was carried out using a coated film.
(§4) For the samples, 2 types of samples were used; i.e., A) the BIT/Zn salt (in the form of a powder containing 79.7% of active ingredients) and B) a BIT material/SC formulation (i.e., Bestcide-NS manufactured by Nippon Soda Co., Ltd. containing 15.0% of active ingredients). For the coating material, an aqueous acrylic emulsion coating material manufactured by Nippe Home Products Co., Ltd. (a preservative-free product) was used.
(§5) (1) Preparation of Test Specimen
(§6) To a blank coating material, either A) 0.019% by weight of the BIT/Zn salt or B) 0.1% by weight of the BIT technical product/SC formulation was added, and the resultant was then stirred and mixed. The coating material to which the BIT/Zn salt was added was further subjected to an ultrasonic treatment to prepare a uniform dispersion.
(§7) Subsequently, the obtained drug-added coating materials were applied onto both sides ([…] for each side) of a sterilized filter paper having a size of 50×50 mm, and the resultant was cured at room temperature for 24 hours. Test specimens where no drug was added were also prepared in the same manner.
(§8) The test was carried out in accordance with JIS Z 2801. In other words, two strains of bacteria were used for the test; i.e., Escherichia coli NBRC 3972 (Escherichia coli) and Staphylococcus aureus NBRC 12732 (Staphylococcus aureus), and their cultures preincubated in an NA medium were diluted with a 500-fold diluted NB liquid medium to prepare bacterial suspensions for inoculation. 0.4 ml of the bacterial suspension was inoculated onto each test specimen (i.e., 50×50 mm sized filter paper with a coated film thereon), and the resultant was covered with a covering film (which was already sterilized and having a size of 45×45 mm). The prepared test specimen was put in a petri dish and incubated for 24 hours in a thermo-hygrostat at a temperature of 35±1° C. and a relative humidity of 95%. Thereafter, the sample surface and the covering film were washed using 10 ml of an SCDLP medium, and the number of bacterial cells per 1 ml of the washed out liquid was calculated by counting the number of colonies using an NA medium.
A coated film obtained using a blank coating material was used as a control.
The number of bacterial cells was observed, just after the inoculation (A), and after 24 hours of incubation (B).
2) Requirements for a Valid Test
1. {(A−B)/A}×100≦90 [A: just after the inoculation, B: after 24 hours of incubation]
2. Results of the viable cell count obtained in (A) were within a range from 1.0 to 5.0×10^5 cells per petri dish.
3. Results of the viable cell count obtained in the blank (untreated) were 1.0×10^3 or more cells per petri dish. […]

Data set [6] concerns Staphylococcus aureus NBRC 12732. The data set is described as follows: Antibacterial test using a coated film (JIS Z 2801), Staphylococcus aureus. The class given is cell-based. On the procedure: as §3, §4, §5, §6, §7
as §8, with “The prepared test specimen was put in a petri dish and incubated for 24 hours in a thermo-hygrostat at a temperature of 35±1° C. and a relative humidity of 95%.” left out, “medium. […]” for “medium.”

[7] abbreviates: coated film, 24 hours at 35±1° C., 0.019% by weight BIT/Zn salt or 0.1% by weight BIT/SC in coating material.
Setting [8] is: larger values indicate stronger antibacterial activity.
The mark [9] stands for this setting: logarithm of viable cell count after 24 hours.

As to `O=c1[nH]sc2ccccc12` [BIT, 1,2-benzoisothiazolin-3-one], in data set [1] (5% by weight in DAE), the “Thickness of ear auricle” value amounted to 0.39 mm; the Extent of hyperplasia is 0.1 mm and 0.10 mm; the General symptoms entry was “no abnormality was observed”. Moreover, the Grade for erythema in data set [1] (5% by weight in DAE, score 0 to 16, 0-9 possibly not irritating, 10-15 slightly irritating, >15 irritating to humans) worked out at 16. Besides, the Evaluation of irritation result in data set [1] (criterion: extent of hyperplasia 0.1 mm or greater) was “irritating”. In data set [2], the “Thermal stability (temperature of breakdown)” value is at most 300 °C. Also, in data set [3], the “MIC value (mM/L) Aspergillus niger NBRC6342” value turned out to be 1.3 mM/L and the MIC value is 200 mg/L (≈ 1320 µM). The “MIC value (mM/L) Cladosporium cladosporioides NBRC6348” value in data set [4] is below 0.3 mM/L.

With `O=c1[n-]sc2ccccc12.O=c1[n-]sc2ccccc12.[Zn+2]` [BIT/Zn salt, zinc salt of BIT], in data set [1] (5% by weight in DAE), the “Thickness of ear auricle” value is reported as 0.34 mm, the Extent of hyperplasia stood at 0.04 mm and the General symptoms result is “attachment of white powder on the ear auricle was observed 3 hours after the administration”. The “Thermal stability (temperature of breakdown)” value in data set [2] is above 400 °C. Besides, the “Number of viable cells, Escherichia coli” value in data set [5] (setting [7]) was <10 Number of cells per petri dish. Also, in data set [5] (setting [8]), the “Antibacterial activity, Escherichia coli” value turned out to be 4.9. Moreover, in data set [5] (setting [9]), the “Logarithmic value, Escherichia coli” value stood at 1.0. The “Antibacterial activity compared with BIT” value in data set [5] (statement covers both bacterial strains of Table 4) is on record as “same level of antibacterial activity as that of BIT”. For the same compound, the “Number of viable cells, Staphylococcus aureus” value in data set [6] (setting [7]) is on record as <10 Number of cells per petri dish. Moreover, the “Antibacterial activity, Staphylococcus aureus” value in data set [6] (setting [8]) stood at 3.6. For the same compound, the “Logarithmic value, Staphylococcus aureus” value in data set [6] (setting [9]) was 1.0. Besides, in data set [3], the “MIC value (mM/L) Aspergillus niger NBRC6342” value is reported as 2.0 mM/L and the MIC value came to 750 mg/L. Also, the “Activity level” value in data set [3] (statement covers both fungal strains) is given as “satisfactory to be put into practice”. Moreover, in data set [4], the “MIC value (mM/L) Cladosporium cladosporioides NBRC6348” value is reported as below 0.1 mM/L.

`[O]=[Zn]` [ZnO, zinc oxide]: in data set [3], the “MIC value (mM/L) Aspergillus niger NBRC6342” value is given as above 12.3 mM/L and the MIC value is given as >1,000 mg/L. The “MIC value (mM/L) Cladosporium cladosporioides NBRC6348” value in data set [4] was found to be 6.10 mM/L.

The record behind these values is patent US20140107344A1, “ZINC SALT OF ISOTHIAZOLONE COMPOUND, METHOD FOR REDUCING IRRITATION CAUSED BY ISOTHIAZOLONE COMPOUND, ANTIBACTERIAL AND ANTIFUNGAL METHOD USING ZINC SALT OF ISOTHIAZOLONE COMPOUND, AND ANTIBACTERIAL AND ANTIFUNGAL COMPOSITION” (Nippon Soda Co., Ltd., priority 2007, published 2014).
